In patent US20240238424A1, “HETEROBIFUNCTIONAL COMPOUNDS AND METHODS OF TREATING DISEASE” (Halda Therapeutics OpCo, Inc., priority 2021, published 2024):

Experiments:
[1] = biological target: T1, GSPT1 (Homo sapiens, UniProt P15170+Q96SW2); test: GSPT1 HiBit degradation assay; assay type: cell-based; details: Table 3; HEK293 LgBiT cells expressing GSPT1_HiBiT, luminescence after 6 hours
T1 construct: host or cells: HEK293 LgBiT cell line
How it was run: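 Degradation readout is luminescence at 6 h, with DC50 taken as the concentration giving 50% GSPT1 loss. Compound titrations were added together with endurazine (0.5× final) to HEK293 LgBiT/GSPT1-HiBiT cells seeded the day before and kept at 37 °C.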

[2] = system: HeLa KRas G12C cells; test: Cellular growth inhibition assay (CTG), HeLa KRas G12C cells; assay type: cell-based; details: Homo sapiens, CellTiter-Glo 2.0, day-5
Description: Cells were seeded in Poly-D-lysine-treated 384-well white plates, with 25 μL cell suspension at 250 cells/well for continuous treatments, and 1000 cells/well for washout treatments. Plates were spun at 300×g for 3 minutes, and cells were cultured at 37° C. with 5% CO2 in a humidified tissue culture incubator.
After 24 hours, the test compounds were diluted with cell culture medium in 96 deep well plates. DMSO was used as a negative control. A 25 μL aliquot of compound-containing medium was added in each well, at a final top concentration of 10 μM or 30 μM test compound, with 3-fold dilutions. For washout assays, after 4 hours, cell medium with compound was removed, and the cells were washed with 75p L fresh medium. Plates were then spun at 300×g for 3 minutes and replaced with 50 μL fresh medium in each well. Plates were then spun at 300×g for 3 minutes again and cultured at 37° C. with 5% CO2.
At day-0 and day-5 of compound treatments, cell viability was quantified with CellTiter-Glo 2.0 (Promega). After equilibrating cell plates at room temperature for 30 minutes, 25 μL CellTiter-Glo 2.0 reagent was dispensed into each well (on top of 50 μL of cell culture). Plates were mixed on a shaker for 2 minutes at 500 rpm, followed by a 10-minute incubation at room temperature. Luminescence readings were measured with an EnVision Plate Reader. Data was normalized to DMSO treated day-0 cell wells. A four-parameter non-linear regression curve fit was applied to dose-response data in Prism to determine the half maximal growth inhibitory concentration (GI50) of each compound.

T1 sequence (P15170 whole entry): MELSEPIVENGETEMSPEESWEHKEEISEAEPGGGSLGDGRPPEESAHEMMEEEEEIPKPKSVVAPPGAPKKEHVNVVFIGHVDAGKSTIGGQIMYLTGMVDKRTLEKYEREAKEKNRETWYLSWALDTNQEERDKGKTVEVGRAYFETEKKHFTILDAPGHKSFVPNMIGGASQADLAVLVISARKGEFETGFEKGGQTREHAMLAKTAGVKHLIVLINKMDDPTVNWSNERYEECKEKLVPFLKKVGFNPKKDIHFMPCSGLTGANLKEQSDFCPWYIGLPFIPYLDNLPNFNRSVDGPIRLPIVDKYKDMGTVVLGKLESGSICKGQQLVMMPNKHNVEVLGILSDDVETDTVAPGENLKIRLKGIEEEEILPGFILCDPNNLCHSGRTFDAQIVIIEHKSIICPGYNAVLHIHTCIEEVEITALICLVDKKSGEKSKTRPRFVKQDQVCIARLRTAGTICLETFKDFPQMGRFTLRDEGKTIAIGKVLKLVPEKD
T1 sequence (Q96SW2 whole entry): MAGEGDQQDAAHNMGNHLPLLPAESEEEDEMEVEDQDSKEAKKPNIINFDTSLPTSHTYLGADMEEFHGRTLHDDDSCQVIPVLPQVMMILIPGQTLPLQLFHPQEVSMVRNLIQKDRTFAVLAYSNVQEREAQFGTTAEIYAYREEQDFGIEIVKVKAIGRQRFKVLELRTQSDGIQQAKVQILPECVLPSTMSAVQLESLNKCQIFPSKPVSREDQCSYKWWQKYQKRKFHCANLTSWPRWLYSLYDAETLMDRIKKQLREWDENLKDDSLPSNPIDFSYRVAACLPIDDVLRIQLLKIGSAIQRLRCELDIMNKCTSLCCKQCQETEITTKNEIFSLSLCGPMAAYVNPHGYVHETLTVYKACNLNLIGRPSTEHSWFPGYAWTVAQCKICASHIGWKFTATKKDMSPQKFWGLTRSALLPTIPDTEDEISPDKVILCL
T1 sequence (Q16531 whole entry partner): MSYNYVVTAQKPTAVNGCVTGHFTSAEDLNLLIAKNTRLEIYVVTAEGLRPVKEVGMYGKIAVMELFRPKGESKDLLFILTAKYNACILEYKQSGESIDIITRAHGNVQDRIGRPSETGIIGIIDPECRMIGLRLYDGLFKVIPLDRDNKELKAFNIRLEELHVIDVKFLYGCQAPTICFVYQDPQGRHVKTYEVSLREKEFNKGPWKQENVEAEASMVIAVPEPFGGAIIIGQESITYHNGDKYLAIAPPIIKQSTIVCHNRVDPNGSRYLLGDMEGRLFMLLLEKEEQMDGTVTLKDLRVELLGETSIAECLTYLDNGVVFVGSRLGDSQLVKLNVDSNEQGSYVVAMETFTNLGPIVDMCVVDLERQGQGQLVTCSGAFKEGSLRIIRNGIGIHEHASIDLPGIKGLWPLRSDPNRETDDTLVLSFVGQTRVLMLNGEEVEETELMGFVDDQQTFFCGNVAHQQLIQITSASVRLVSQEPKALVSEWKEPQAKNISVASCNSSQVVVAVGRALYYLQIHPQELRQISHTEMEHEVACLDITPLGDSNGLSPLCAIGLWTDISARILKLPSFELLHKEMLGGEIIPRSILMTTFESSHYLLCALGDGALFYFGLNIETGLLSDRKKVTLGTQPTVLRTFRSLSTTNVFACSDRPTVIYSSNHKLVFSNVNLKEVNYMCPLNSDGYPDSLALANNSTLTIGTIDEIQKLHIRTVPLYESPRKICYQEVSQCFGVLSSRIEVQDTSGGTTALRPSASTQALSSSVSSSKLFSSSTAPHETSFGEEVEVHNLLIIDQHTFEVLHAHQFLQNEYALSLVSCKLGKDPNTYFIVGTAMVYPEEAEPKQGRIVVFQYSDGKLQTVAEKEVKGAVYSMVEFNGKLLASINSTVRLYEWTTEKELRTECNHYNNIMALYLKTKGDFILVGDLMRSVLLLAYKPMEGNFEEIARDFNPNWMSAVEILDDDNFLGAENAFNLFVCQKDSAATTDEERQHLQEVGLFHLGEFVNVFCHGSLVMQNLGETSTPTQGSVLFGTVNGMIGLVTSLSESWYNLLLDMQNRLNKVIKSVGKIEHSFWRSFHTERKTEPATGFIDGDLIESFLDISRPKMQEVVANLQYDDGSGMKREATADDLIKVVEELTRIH

Structure (SMILES) | DC50 [1] [µM] | GI50 [2] [µM]
C=CC(=O)N1CCN(c2nc(NCCCCCCCCNc3cccc4c3CN(C3CCC(=O)NC3=O)C4=O)nc3c(F)c(-c4cc(O)cc5ccccc45)c(Cl)cc23)CC1 (centres unmarked) [Compound I-6, 3-(4-((8-((4-(4-acryloylpiperazin-1-yl)-6-chloro-8-fluoro-7-(3-hydroxynaphthalen-1-yl)quinazolin-2-yl)amino)octyl)-amino)-1-oxoisoindolin-2-yl)piperidine-2,6-dione] | > 10 | > 10
C=CC(=O)N1CCN(c2nc(NCCOCCOCCOCCOCCOCCOCCc3cc(Cl)cc(NC(=O)NCc4ccc5c(c4)CN(C4CCC(=O)NC4=O)C5=O)c3)nc3c(F)c(-c4cc(O)cc5ccccc45)c(Cl)cc23)CC1 (centres unmarked) [Compound I-7, 1-[3-chloro-5-[2-[2-[2-[2-[2-[2-[2-[[6-chloro-8-fluoro-7-(3-hydroxy-1-naphthyl)-4-(4-prop-2-enoylpiperazin-1-yl)quinazolin-2-yl]amino]ethoxy]ethoxy]ethoxy]ethoxy]ethoxy]ethoxy]ethyl]phenyl]-3-[[2-(2,6-dioxo-3-piperidyl)-1-oxo-isoindolin-5-yl]methyl]urea] | 5 to 10 | > 10
C=CC(=O)N1CCN(c2nc(NCCCCCCCCc3cccc4c3CN(C3CCC(=O)NC3=O)C4=O)nc3c(F)c(-c4cc(O)cc5ccccc45)c(Cl)cc23)CC1 (centres unmarked) [Compound I-8, 3-(4-(8-((4-(4-acryloylpiperazin-1-yl)-6-chloro-8-fluoro-7-(3-hydroxynaphthalen-1-yl)quinazolin-2-yl)amino)octyl)-1-oxoisoindolin-2-yl)piperidine-2,6-dione] | > 10 | > 10
C=C(F)C(=O)N1CCN(c2nc(OC[C@@H]3CCCN3CCOCCOCCOCCOCCOCCOCCOCCOCCOc3cc(Cl)cc(NC(=O)NCc4ccc5c(c4)CN(C4CCC(=O)NC4=O)C5=O)c3)nc3c2CCN(c2cccc4cccc(Cl)c24)C3)C[C@@H]1CC#N (stereo partly drawn) [Compound I-9, 1-[3-chloro-5-[2-[2-[2-[2-[2-[2-[2-[2-[2-[(2S)-2-[[7-(8-chloro-1-naphthyl)-4-[(3S)-3-(cyanomethyl)-4-(2-fluoroprop-2-enoyl)piperazin-1-yl]-6,8-dihydro-5H-pyrido[3,4-d]pyrimidin-2-yl]oxymethyl]pyrrolidin-1-yl]ethoxy]ethoxy]ethoxy]ethoxy]ethoxy]ethoxy]ethoxy]ethoxy]ethoxy]phenyl]-3-[[2-(2,6-dioxo-3-piperidyl)-1-oxo-isoindolin-5-yl]methyl]urea] | > 10 | > 10
C=C(F)C(=O)N1CCN(c2nc(OC[C@@H]3CCCN3CCOCCOCCOCCOCCOCCOCCOCCOCCOCCOCCOc3cc(Cl)cc(NC(=O)NCc4ccc5c(c4)CN(C4CCC(=O)NC4=O)C5=O)c3)nc3c2CCN(c2cccc4cccc(Cl)c24)C3)C[C@@H]1CC#N (stereo partly drawn) [Compound I-10, 1-[3-chloro-5-[2-[2-[2-[2-[2-[2-[2-[2-[2-[2-[2-[(2S)-2-[[7-(8-chloro-1-naphthyl)-4-[(3S)-3-(cyanomethyl)-4-(2-fluoroprop-2-enoyl)piperazin-1-yl]-6,8-dihydro-5H-pyrido[3,4-d]pyrimidin-2-yl]oxymethyl]pyrrolidin-1-yl]ethoxy]ethoxy]ethoxy]ethoxy]ethoxy]ethoxy]ethoxy]ethoxy]ethoxy]ethoxy]ethoxy]phenyl]-3-[[2-(2,6-dioxo-3-piperidyl)-1-oxo-isoindolin-5-yl]methyl]urea] | 5 to 10 | 3 to 10
C=C(F)C(=O)N1CCN(c2nc(OC[C@@H]3CCCN3CCOCCOCCOCCOCCOCCOCCOCCOCCc3cc(Cl)cc(NC(=O)NCc4ccc5c(c4)CN(C4CCC(=O)NC4=O)C5=O)c3)nc3c2CCN(c2cccc4cccc(Cl)c24)C3)C[C@@H]1CC#N (stereo partly drawn) [Compound I-11, 1-[3-chloro-5-[2-[2-[2-[2-[2-[2-[2-[2-[2-[(2S)-2-[[7-(8-chloro-1-naphthyl)-4-[(3S)-3-(cyanomethyl)-4-(2-fluoroprop-2-enoyl)piperazin-1-yl]-6,8-dihydro-5H-pyrido[3,4-d]pyrimidin-2-yl]oxymethyl]pyrrolidin-1-yl]ethoxy]ethoxy]ethoxy]ethoxy]ethoxy]ethoxy]ethoxy]ethoxy]ethyl]phenyl]-3-[[2-(2,6-dioxo-3-piperidyl)-1-oxo-isoindolin-5-yl]methyl]urea] | > 10 | > 10
C=C(F)C(=O)N1CCN(c2nc(OC[C@@H]3CCCN3CCOCCOCCOCCOCCOCCOCCOCCOCCOCCOCCc3cc(Cl)cc(NC(=O)NCc4ccc5c(c4)CN(C4CCC(=O)NC4=O)C5=O)c3)nc3c2CCN(c2cccc4cccc(Cl)c24)C3)C[C@@H]1CC#N (stereo partly drawn) [Compound I-12, 1-[3-chloro-5-[2-[2-[2-[2-[2-[2-[2-[2-[2-[2-[2-[(2S)-2-[[7-(8-chloro-1-naphthyl)-4-[(3S)-3-(cyanomethyl)-4-(2-fluoroprop-2-enoyl)piperazin-1-yl]-6,8-dihydro-5H-pyrido[3,4-d]pyrimidin-2-yl]oxymethyl]pyrrolidin-1-yl]ethoxy]ethoxy]ethoxy]ethoxy]ethoxy]ethoxy]ethoxy]ethoxy]ethoxy]ethoxy]ethyl]phenyl]-3-[[2-(2,6-dioxo-3-piperidyl)-1-oxo-isoindolin-5-yl]methyl]urea] | 5 to 10 | 3 to 10
C=CC(=O)N1CCN(c2nc(NCCOCCOCCOCCOCCOCCOCCOCCOCCOc3cc(Cl)cc(NC(=O)NCc4ccc5c(c4)CN(C4CCC(=O)NC4=O)C5=O)c3)nc3c(F)c(-c4cc(O)cc5ccccc45)c(Cl)cc23)CC1 (centres unmarked) [Compound I-13, 1-[3-chloro-5-[2-[2-[2-[2-[2-[2-[2-[2-[2-[[6-chloro-8-fluoro-7-(3-hydroxy-1-naphthyl)-4-(4-prop-2-enoylpiperazin-1-yl)quinazolin-2-yl]amino]ethoxy]ethoxy]ethoxy]ethoxy]ethoxy]ethoxy]ethoxy]ethoxy]ethoxy]phenyl]-3-[[2-(2,6-dioxo-3-piperidyl)-1-oxo-isoindolin-5-yl]methyl]urea] | > 10 | > 10
C=CC(=O)N1CCN(c2nc(NCCOCCOCCOCCOCCOCCOCCOCCOCCOCCOCCOc3cc(Cl)cc(NC(=O)NCc4ccc5c(c4)CN(C4CCC(=O)NC4=O)C5=O)c3)nc3c(F)c(-c4cc(O)cc5ccccc45)c(Cl)cc23)CC1 (centres unmarked) [Compound I-14, 1-[3-chloro-5-[2-[2-[2-[2-[2-[2-[2-[2-[2-[2-[2-[[6-chloro-8-fluoro-7-(3-hydroxy-1-naphthyl)-4-(4-prop-2-enoylpiperazin-1-yl)quinazolin-2-yl]amino]ethoxy]ethoxy]ethoxy]ethoxy]ethoxy]ethoxy]ethoxy]ethoxy]ethoxy]ethoxy]ethoxy]phenyl]-3-[[2-(2,6-dioxo-3-piperidyl)-1-oxo-isoindolin-5-yl]methyl]urea] | > 10 | > 10
C=CC(=O)N1CCN(c2nc(NCCOCCOCCOCCOCCOCCOCCOCCOCCc3cc(Cl)cc(NC(=O)NCc4ccc5c(c4)CN(C4CCC(=O)NC4=O)C5=O)c3)nc3c(F)c(-c4cc(O)cc5ccccc45)c(Cl)cc23)CC1 (centres unmarked) [Compound I-15, 1-[3-chloro-5-[2-[2-[2-[2-[2-[2-[2-[2-[2-[[6-chloro-8-fluoro-7-(3-hydroxy-1-naphthyl)-4-(4-prop-2-enoylpiperazin-1-yl)quinazolin-2-yl]amino]ethoxy]ethoxy]ethoxy]ethoxy]ethoxy]ethoxy]ethoxy]ethoxy]ethyl]phenyl]-3-[[2-(2,6-dioxo-3-piperidyl)-1-oxo-isoindolin-5-yl]methyl]urea] | > 10 | > 10
